From article PMC8003779, “Determination of Cytotoxic Activity of Sanguinaria canadensis Extracts against Human Melanoma Cells and Comparison of Their Cytotoxicity with Cytotoxicity of Some Anticancer Drugs” (Molecules, 2021)
Values after ≈ are worked out from the molar mass of the structure shown. Read-outs that look alike come from different tables or passages of the source.

Experiments:
[1] = source not given; cited from earlier work
A375 cells = assay: Cell viability (MTT assay), A375 melanoma cells; type: cell-based, human; conditions: for IC50: Homo sapiens, read-out: IC50 ± SD for Cell Viability, A375
Description: (§1) Cytotoxicity of the plant extracts, berberine, chelerythrine, chelidonine, protopine, and sanguinarine were examined against a panel of three melanoma cell lines (A375, G-361, SK-MEL-3) characterized by different degrees of genetic complexity. Human skin fibroblasts (CRL-1474) were used in order to evaluate the effect of Saguinaria canadensis extracts against normal (i.e., non-cancerous) cells. The investigated cell lines were obtained from American Type Culture Collection (ATCC; Manassas, VA, USA). A375 and CRL-1474 cells were cultured in Dulbecco’s Modified Eagle’s Medium (DMEM) (Sigma Aldrich, St. Louis, MO, USA), supplemented with 10% heat inactivated fetal bovine serum (FBS), penicillin (100 U/mL), and streptomycin (100 µg/mL). Human melanoma SK-MEL-3 and G-361 cells were maintained in McCoy’s 5A Medium (Sigma Aldrich, St. Louis, MO, USA) supplemented with 15% (for SK-MEL-3) or 10% (for G-361) FBS, penicillin (100 U/mL), and streptomycin (100 µg/mL). The cells were maintained at 37 °C in a 5% CO2 atmosphere. The dried plant extracts and standards ([…]) were dissolved in DMSO, in order to obtain stock solutions at concentrations of 50 mg/mL. At the day of the experiment, the suspension of cells (1 × 10^5 cells/mL) in the respective medium was applied to a 96-wellplate at 100 µL per well. After 24 h of incubation, the medium was removed from the wells and replaced by increasing concentrations of plant extracts or standards in medium containing 2% FBS. The control cells were only cultured with a medium containing 2% FBS. Cytotoxicity of DMSO was also checked at concentrations present in respective dilutions of stock solutions. After 24 h of incubation, 15 µL MTT working solution (5 mg/mL in PBS) was added to each well. The plate was incubated for 3 h. Subsequently, 100 µL of 10% SDS solution was added to each well. Cells were incubated overnight at 37 °C to dissolve the precipitated formazan crystals. The concentration of the dissolved formazan was evaluated by measuring the absorbance at λ = 570 nm, using a microplate reader (Epoch, BioTek Instruments, Inc., Winooski, VT, USA). Two independent experiments were performed in triplicates. The results of the MTT assay were expressed as mean ± SD. […] IC50 values of the investigated extracts and alkaloid standards were calculated using the IC50 calculator (www.IC50.tk (accessed on 22 January 2021)).
(§2) To determine the selectivity index (SI), IC50 values for human normal fibroblasts was obtained in the same conditions as that used for cancer cell lines. Selectivity index of each compound was determined by calculating the ratio of IC50 values obtained for human normal fibroblasts and cancer cell lines.

SK-MEL-3 cells [2] = assay: Cell viability (MTT assay), SK-MEL-3 melanoma cells; type: cell-based, human; conditions: for IC50: Homo sapiens, read-out: IC50 ± SD for Cell Viability, SK-MEL-3
Description: as §1, §2

G-361 cells = assay: Cell viability (MTT assay), G-361 melanoma cells; type: cell-based, human; conditions: for IC50: Homo sapiens, read-out: IC50 ± SD for Cell Viability, G-361
Description: as §1, §2

SK-MEL-3 cells [3] = assay: Cell proliferation, BrdU incorporation assay; type: cell-based, human; conditions: 24 h incubation, 0.25–100 µg/mL
Protocol: The antiproliferative effect of S. canadensis extracts was measured by means of the BrdU assay, which indicates the rate of incorporation of 5′-bromo-2′-deoxy-uridine (BrdU) during DNA biosynthesis. In brief, SK-MEL-3 cells were plated in 96-well plates (NUNC, Roskilde, Denmark) at the density of 5 × 10^4 cells/mL. The next day, cells were exposed to increased concentrations (0.25–100 µg/mL) of S. canadensis extracts or cisplatin or a fresh culture medium. Cell proliferation was examined after 24 h incubation, according to the manufacturer’s protocol (Cell Proliferation ELISA BrdU, Roche Diagnostics GmbH, Penzberg, Germany). IC50 values of the investigated extracts and cisplatin were calculated using IC50 calculator [www.IC50.tk (accessed on 11 March 2021)].

[4] = tested on: melanoma cell lines (A375, G-361, SK-MEL-3); assay: Cell viability (MTT assay), all three melanoma cell lines taken together; type: cell-based, human
Description: Cytotoxicity of the plant extracts, berberine, chelerythrine, chelidonine, protopine, and sanguinarine were examined against a panel of three melanoma cell lines (A375, G-361, SK-MEL-3) characterized by different degrees of genetic complexity. Human skin fibroblasts (CRL-1474) were used in order to evaluate the effect of Saguinaria canadensis extracts against normal (i.e., non-cancerous) cells. The investigated cell lines were obtained from American Type Culture Collection (ATCC; Manassas, VA, USA). A375 and CRL-1474 cells were cultured in Dulbecco’s Modified Eagle’s Medium (DMEM) (Sigma Aldrich, St. Louis, MO, USA), supplemented with 10% heat inactivated fetal bovine serum (FBS), penicillin (100 U/mL), and streptomycin (100 µg/mL). Human melanoma SK-MEL-3 and G-361 cells were maintained in McCoy’s 5A Medium (Sigma Aldrich, St. Louis, MO, USA) supplemented with 15% (for SK-MEL-3) or 10% (for G-361) FBS, penicillin (100 U/mL), and streptomycin (100 µg/mL). […] The concentration of the dissolved formazan was evaluated by measuring the absorbance at λ = 570 nm, using a microplate reader (Epoch, BioTek Instruments, Inc., Winooski, VT, USA). […] The results of the MTT assay were expressed as mean ± SD. […] IC50 values of the investigated extracts and alkaloid standards were calculated using the IC50 calculator (www.IC50.tk (accessed on 22 January 2021)).

[5] = A-375, MTT, 24 h exposure, medium with 2% FBS
[6] = SK-MEL3, MTT, 24 h exposure, medium with 2% FBS
[7] = G-361, MTT, 24 h exposure, medium with 2% FBS
[8] = MTT, 24 h exposure, medium with 2% FBS

Compound	Log P [1]	pKa [1]	IC50 (A375 cells; [5])	IC50 (SK-MEL-3 cells [2]; [6])	IC50 (G-361 cells; [7])	IC50 ± SD for Cell Viability, A375 (A375 cells; [8])	IC50 ± SD for Cell Viability, SK-MEL-3 (SK-MEL-3 cells [2]; [8])	IC50 ± SD for Cell Viability, G-361 (G-361 cells; [8])	further results
COc1ccc2c(c[n+](C)c3c4cc5c(cc4ccc23)OCO5)c1OC [Chelerythrine]	−0.88	−4.4	0.19 ± 0.04 µg/mL	0.14 ± 0.004 µg/mL	0.46 ± 0.07 µg/mL				
C[n+]1cc2c3c(ccc2c2ccc4cc5c(cc4c21)OCO5)OCO3 [Sanguinarine]	−0.94	−4.5							IC50 (A375 cells; A-375, 24 h): 0.11 ± 0.003 µg/mL; IC50 (SK-MEL-3 cells [2]; SK-MEL3, 24 h): 0.54 ± 0.16 µg/mL; IC50 (G-361 cells; G-361, 24 h): 0.17 ± 0.02 µg/mL
NC(=O)NO [Hydroxyurea]						>200 µg/mL	>200 µg/mL	>200 µg/mL	
N.N.[Cl][Pt][Cl] [Cisplatin]						10.62 ± 1.04 µg/mL	14.42 ± 1.61 µg/mL	11.53 ± 1.46 µg/mL	IC50 ± SD for Cell Proliferation Measured by BrdU Incorporation in SK-MEL-3 Cells (SK-MEL-3 cells [3]): 24.84 ± 3.60 µg/mL
COc1ccc2cc3[n+](cc2c1OC)CCc1cc2c(cc1-3)OCO2 [Berberine]	−1.3	−4.4	51.6 ± 4.84 µg/mL	41 ± 5.36 µg/mL	21 ± 3.25 µg/mL				
CN1Cc2c(ccc3c2OCO3)[C@@H]2[C@H]1c1cc3c(cc1C[C@@H]2O)OCO3 [Chelidonine]	2.05	5.73							IC50 ([4]; Homo sapiens, 24 h, read-out: IC50, cell viability, across all tested melanoma cell lines, A375, G-361, SK-MEL-3): > 50 µg/mL; IC50 (A375 cells; A-375, 24 h): > 50 µg/mL; IC50 (SK-MEL-3 cells [2]; SK-MEL3, 24 h): > 50 µg/mL; IC50 (G-361 cells; G-361, 24 h): > 50 µg/mL
COc1cc([C@@H]2c3cc4c(cc3[C@@H](O[C@@H]3O[C@@H]5CO[C@@H](C)O[C@H]5[C@H](O)[C@H]3O)[C@H]3COC(=O)[C@H]23)OCO4)cc(OC)c1O [Etoposide]			92.3 ± 4.58 µg/mL (≈ 157 µM)	> 200 µg/mL	52.3 ± 3.86 µg/mL (≈ 88.9 µM)				
Protopine	2.59	4.95				>50 µg/mL	>50 µg/mL	>50 µg/mL	IC50, cell viability, across all tested melanoma cell lines ([4]; A375, G-361, SK-MEL-3, 24 h): more than 50 µg/mL
